“Also recorded” adds a separate entry of the source. Each block holds one molecule with its values, some of them ahead of it.
Experiments:
[1] = molecular target: T1, NMDAR (Mus musculus, UniProt P35438); experiment: Whole-cell voltage-clamp recordings of evoked NMDAR-EPSCs in CA1 pyramidal cells of acute hippocampal slices; format: cell-based; conditions: for effect of a low dose after priming of NMDARs with high doses of glycine or D-serine: subsequent application of a low dose
[2] = 175 mg, clinical trials; cited from earlier work
[3] = system: NMDAR (GluN1-WT or GluN1-A714L with GluN2A) in HEK293 cells; conditions: 1 mM glycine
[4] = system: NMDAR; experiment: Whole-cell voltage-clamp recordings of evoked NMDAR-EPSCs in CA1 pyramidal cells of acute hippocampal slices; format: cell-based, mouse; conditions: 1 mM glycine, acute slices, cells infected with AAV-GluN1-A714L
[5] = molecular target: T1, NMDAR; experiment: NMDAR-EPSC trains in acute slices during the oxygen-glucose deprivation (OGD) paradigm; format: cell-based; conditions: NMDAR-EPSC trains (20 Hz) recorded with GO
Text: Whole-cell electrophysiology on hippocampal slices and HEK293 cells. Whole-cell voltage-clamp recordings were obtained from visually identified CA1 pyramidal cells from acute hippocampal brain slices (300 μm thick) in oxygenated artificial cerebrospinal fluid (ACSF) as previously described (Martina et al., 2004, 2005). The cells were voltage-clamped at −65 mV using cesium methane sulfonate based internal solution and postsynaptic currents were evoked by electrical stimulation of the Schaffer collaterals with a bipolar stimulating electrode positioned in the Stratum radiatum. The intensity of the stimulation was adjusted to obtain evoked excitatory postsynaptic currents (EPSCs). […] To isolate the NMDAR-EPSC, a low concentration of MgCl2 (0.13 mM) ACSF was used wherein the CaCl2 concentration was increased to 3.5 mM to maintain cation balance.
Oxygen-glucose deprivation paradigm. To mimic ischemia, the acute slices were challenged by an oxygen-glucose deprivation paradigm (OGD) modified from Rossi et al. (Rossi et al., 2000). In this paradigm, external glucose was replaced with 7 mM sucrose, and the external solution was saturated with 95% N2/5% CO2 instead of 95% O2/5% CO2. Iodoacetate and cyanide were also added to the OGD external solution to block glycolysis and oxidative phosphorylation.
Purification of glycine oxidase. […]

Molecule: O=C(O)CN(CC(=O)O)c1ccccc1OCCOc1ccccc1N(CC(=O)O)CC(=O)O [BAPTA]
- effect on the decrease in NMDAR-EPSC amplitude induced by 1 mM exogenous glycine ([1]; BAPTA 10 mM in the recording electrode): significant attenuation

Molecule: C[C@H](Oc1ccc(S(C)(=O)=O)cc1C(=O)N1CCN(c2ncc(C(F)(F)F)cc2F)CC1)C(F)(F)F [Bitopertin]
- tolerability at high dose [2]: relatively well tolerated

- effect on evoked NMDAR-EPSC amplitude ([1]; 10 μM D-serine, WT and SR−/− mice): potentiated
- effects of increasing concentrations on NMDAR-EPSC amplitudes ([1]; D-serine, WT mice): dose-dependent
- dose required to induce a decrease in NMDAR-EPSC amplitude ([1]; SR−/− mice): 2 mM
- dose required to induce a decrease in NMDAR-EPSC amplitude ([1]; WT mice): 1 mM
- dose-response curve of NMDAR-EPSC amplitudes relative to that of glycine ([1]; WT mice): left-shifted
- effect of a low dose after priming of NMDARs with high doses of glycine or D-serine [1]: induced GINI
Molecule: N[C@H](CO)C(=O)O [D-serine]

- effect on the decrease in NMDAR-EPSC amplitude by 1 mM glycine ([1]; 100 μM dynasore): abolished
- effect on the decrease in NMDAR-EPSC amplitude evoked by 1 mM D-serine ([1]; dynasore): abolished
- effect on the decrease of NMDAR-EPSC amplitude induced by 250 μM glycine ([1]; dynasore, GlyT1+/− mice): abolished
Molecule: O=C(N/N=C/c1ccc(O)c(O)c1)c1cc2ccccc2cc1O [dynasore]

- effect on NMDAR-EPSC amplitude ([1]; 250 μM glycine, GlyT1+/− mice): significantly inhibited
- effect on NMDAR-EPSC amplitude ([1]; 250 μM glycine, WT mice): potentiated
- effect on NMDAR-EPSC amplitude ([1]; 1 mM glycine with low Ca2+ (1 mM)): increase in NMDAR-EPSC amplitude
- difference in NMDAR-EPSC amplitude between WT and GlyT1+/− mice ([1]; bath application of 10 μM or 1 mM glycine): no significant effect
- effect of a low dose after priming of NMDARs with high doses of glycine or D-serine [1]: induced GINI
Molecule: NCC(=O)O [glycine]
- effect on NMDAR amplitude ([3]; cells expressing GluN1-A714L): significantly increased
- effect on amplitude of the NMDAR-EPSC ([3]; cells expressing GluN1-WT): significant decrease
- effect on NMDAR-EPSC amplitudes [4]: did not decrease
- effect on NMDAR-EPSC amplitude ([1]; bath application of low glycine concentrations (below / ≤250 μM), WT slices): increased; also recorded: potentiated in a dose-dependent fashion
- effect on NMDAR-EPSC amplitude ([1]; high glycine concentration (1 mM), normal Ca2+ (3.5 mM), WT slices): significantly reduced; also recorded: significant decrease

- effect on the decrease of the NMDAR-EPSC amplitude following OGD [5]: abolished
B1: GO: an enzyme that catalyzes the breakdown of glycine; His-tagged, from Bacillus subtilis, expressed in E. coli (protein, UniProt O31616 1-369, looked up)
Glycine oxidase: MKRHYEAVVIGGGIIGSAIAYYLAKENKNTALFESGTMGGRTTSAAAGMLGAHAECEERDAFFDFAMHSQRLYKGLGEELYALSGVDIRQHNGGMFKLAFSEEDVLQLRQMDDLDSVSWYSKEEVLEKEPYASGDIFGASFIQDDVHVEPYFVCKAYVKAAKMLGAEIFEHTPVLHVERDGEALFIKTPSGDVWANHVVVASGVWSGMFFKQLGLNNAFLPVKGECLSVWNDDIPLTKTLYHDHCYIVPRKSGRLVVGATMKPGDWSETPDLGGLESVMKKAKTMLPAIQNMKVDRFWAGLRPGTKDGKPYIGRHPEDSRILFAAGHFRNGILLAPATGALISDLIMNKEVNQDWLHAFRIDRKEAVQI
modifications: His tag
notes: an enzyme that catalyzes the breakdown of glycine; His-tagged, from Bacillus subtilis, expressed in E. coli

— patent US20250295653A1, “Use Of Glycine Transporter- 1 Antagonists As Vascular Dementia And/Or Stroke Prophylactic/Treatment Agents” (Recherches Neuro-Hippocampe Inc., priority 2022, published 2025)
